Patent US11919901B2 (Syndax Pharmaceuticals, Inc., priority 2021, dated 2024)

These compounds were tested on MV4-11 cells (assay: Cell proliferation assay MV4;11 (CellTiter-Glo, 72 hours)). Settings: Homo sapiens; MV4;11 leukemia cell line, 72 hours; read-out: MV4; 11 IC50.
Format: cell-based
Outline: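 MV4-11 cells (MLL1-AF4 fusion) exposed 72 h at 37 °C to 8 compound concentrations, final 0.632–2000 nM. Viability by CellTiter-Glo luminescence as % of vehicle RLU; % max inhibition = 100 − viability at top concentration.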

SMILES	IC50
CC(C)N(C(=O)c1cc(F)ccc1Oc1cncnc1N1CC2(CCN(C[C@@H]3CC[C@@H](NS(=O)(=O)C4COC4)CO3)CC2)C1)C1CC(F)(F)C1 [Example 115, N-(3,3-Difluorocyclobutyl)-5-fluoro-N-isopropyl-2-((4-(7-(((2S,5R)-5-(oxetane-3-sulfonamido)tetrahydro-2H-pyran-2-yl)methyl)-2,7-diazaspiro[3.5]nonan-2-yl)pyrimidin-5-yl)oxy)benzamide]	< 0.1 µM
CC(C)N(C(=O)c1cc(F)ccc1Oc1cncnc1N1CC2(CCN(C[C@@H]3CC[C@@H](NS(=O)(=O)N4CCOCC4)CO3)CC2)C1)C1CC(F)(F)C1 [Example 116, N-(3,3-Difluorocyclobutyl)-5-fluoro-N-isopropyl-2-((4-(7-(((2S,5R)-5-(morpholine-4-sulfonamido)tetrahydro-2H-pyran-2-yl)methyl)-2,7-diazaspiro[3.5]nonan-2-yl)pyrimidin-5-yl)oxy)benzamide]	< 0.1 µM
CC(C)N(C(=O)c1cc(F)ccc1Oc1cncnc1N1CC2(CCN(C[C@@H]3CC[C@@H](NS(N)(=O)=O)CO3)CC2)C1)C1CC(F)(F)C1 [Example 117, N-(3,3-Difluorocyclobutyl)-5-fluoro-N-isopropyl-2-((4-(7-(((2S,5R)-5-(sulfamoylamino)tetrahydro-2H-pyran-2-yl)methyl)-2,7-diazaspiro[3.5]nonan-2-yl)pyrimidin-5-yl)oxy)benzamide]	< 0.1 µM
CC(C)N(C(=O)c1cc(F)ccc1Oc1cncnc1N1CC2(CCN(C[C@@H]3CC[C@@H](NS(=O)(=O)N4CCC4)CO3)CC2)C1)C1CC(F)(F)C1 [Example 118, 2-((4-(7-(((2S,5R)-5-(Azetidine-1-sulfonamido)tetrahydro-2H-pyran-2-yl)methyl)-2,7-diazaspiro[3.5]nonan-2-yl)pyrimidin-5-yl)oxy)-N-(3,3-difluorocyclobutyl)-5-fluoro-N-isopropylbenzamide]	< 0.1 µM
CC(C)N(C(=O)c1cc(F)ccc1Oc1cncnc1N1CC2(CCN(C[C@@H]3CC[C@@H](NS(=O)(=O)N(C)C(C)C)CO3)CC2)C1)C1CC(F)(F)C1 [Example 119, N-(3,3-Difluorocyclobutyl)-5-fluoro-N-isopropyl-2-((4-(7-(((2S,5R)-5-((N-isopropyl-N-methylsulfamoyl)amino)tetrahydro-2H-pyran-2-yl)methyl)-2,7-diazaspiro[3.5]nonan-2-yl)pyrimidin-5-yl)oxy)benzamide]	< 0.1 µM
C[C@@H]1COC[C@@H](C)N1C(=O)c1cc(F)ccc1Oc1cncnc1N1CC2(CCN(C[C@@H]3CC[C@@H](NS(=O)(=O)c4ccccc4)CO3)CC2)C1 [Example 120, N-((3R,6S)-6-((2-(5-(2-((3R,5R)-3,5-Dimethylmorpholine-4-carbonyl)-4-fluorophenoxy)pyrimidin-4-yl)-2,7-diazaspiro[3.5]nonan-7-yl)methyl)tetrahydro-2H-pyran-3-yl)benzenesulfonamide]	< 0.1 µM
C[C@@H]1COC[C@@H](C)N1C(=O)c1cc(F)ccc1Oc1cncnc1N1CC2(CCN(C[C@@H]3CC[C@@H](NS(=O)(=O)N4CCC4)CO3)CC2)C1 [Example 121, N-((3R,6S)-6-((2-(5-(2-((3R,5R)-3,5-Dimethylmorpholine-4-carbonyl)-4-fluorophenoxy)pyrimidin-4-yl)-2,7-diazaspiro[3.5]nonan-7-yl)methyl)tetrahydro-2H-pyran-3-yl)azetidine-1-sulfonamide]	< 0.1 µM
Cc1nc(S(=O)(=O)N[C@@H]2CC[C@@H](CN3CCC4(CC3)CN(c3ncncc3Oc3ccc(F)cc3C(=O)N3[C@H](C)COC[C@H]3C)C4)OC2)cs1 [Example 122, N-((3R,6S)-6-((2-(5-(2-((3R,5R)-3,5-Dimethylmorpholine-4-carbonyl)-4-fluorophenoxy)pyrimidin-4-yl)-2,7-diazaspiro[3.5]nonan-7-yl)methyl)tetrahydro-2H-pyran-3-yl)-2-methylthiazole-4-sulfonamide]	< 0.1 µM
C[C@@H]1COC[C@@H](C)N1C(=O)c1cc(F)ccc1Oc1cncnc1N1CC2(CCN(C[C@@H]3CC[C@@H](NS(=O)(=O)N(C)C)CO3)CC2)C1 [Example 123, {[(3R,6S)-6-{[2-(5-{2-[(3R,5R)-3,5-Dimethylmorpholine-4-carbonyl]-4-fluorophenoxy}pyrimidin-4-yl)-2,7-diazaspiro[3.5]nonan-7-yl]methyl}oxan-3-yl]sulfamoyl}dimethylamine]	< 0.1 µM
C[C@@H]1COC[C@@H](C)N1C(=O)c1cc(F)ccc1Oc1cncnc1N1CC2(CCN(C[C@@H]3CC[C@@H](NS(=O)(=O)N4CCCC4)CO3)CC2)C1 [Example 124, N-((3R,6S)-6-((2-(5-(2-((3R,5R)-3,5-Dimethylmorpholine-4-carbonyl)-4-fluorophenoxy)pyrimidin-4-yl)-2,7-diazaspiro[3.5]nonan-7-yl)methyl)tetrahydro-2H-pyran-3-yl)pyrrolidine-1-sulfonamide]	< 0.1 µM
CCNS(=O)(=O)N[C@@H]1CC[C@@H](CN2CCC3(CC2)CN(c2ncncc2Oc2ccc(F)cc2C(=O)N2[C@H](C)COC[C@H]2C)C3)OC1 [Example 125, {[(3R,6S)-6-{[2-(5-{2-[(3R,5R)-3,5-Dimethylmorpholine-4-carbonyl]-4-fluorophenoxy}pyrimidin-4-yl)-2,7-diazaspiro[3.5]nonan-7-yl]methyl}oxan-3-yl]sulfamoyl}(ethyl)amine]	< 0.1 µM
C[C@@H]1COC[C@@H](C)N1C(=O)c1cc(F)ccc1Oc1cncnc1N1CC2(CCN(C[C@@H]3CC[C@@H](NS(=O)(=O)c4cnn(C)c4)CO3)CC2)C1 [Example 126, N-((3R,6S)-6-((2-(5-(2-((3R,5R)-3,5-Dimethylmorpholine-4-carbonyl)-4-fluorophenoxy)pyrimidin-4-yl)-2,7-diazaspiro[3.5]nonan-7-yl)methyl)tetrahydro-2H-pyran-3-yl)-1-methyl-1H-pyrazole-4-sulfonamide]	< 0.1 µM
C[C@@H]1COC[C@@H](C)N1C(=O)c1cc(F)ccc1Oc1cncnc1N1CC2(CCN(C[C@@H]3CC[C@@H](NS(=O)(=O)c4ccn(C)n4)CO3)CC2)C1 [Example 127, N-((3R,6S)-6-((2-(5-(2-((3R,5R)-3,5-Dimethylmorpholine-4-carbonyl)-4-fluorophenoxy)pyrimidin-4-yl)-2,7-diazaspiro[3.5]nonan-7-yl)methyl)tetrahydro-2H-pyran-3-yl)-1-methyl-1H-pyrazole-3-sulfonamide]	< 0.1 µM
CCN(C)S(=O)(=O)N[C@@H]1CC[C@@H](CN2CCC3(CC2)CN(c2ncncc2Oc2ccc(F)cc2C(=O)N2[C@H](C)COC[C@H]2C)C3)OC1 [Example 128, {[(3R,6S)-6-{[2-(5-{2-[(3R,5R)-3,5-Dimethylmorpholine-4-carbonyl]-4-fluorophenoxy}pyrimidin-4-yl)-2,7-diazaspiro[3.5]nonan-7-yl]methyl}oxan-3-yl]sulfamoyl}(ethyl)methylamine]	< 0.1 µM
C[C@@H]1COC[C@@H](C)N1C(=O)c1cc(F)ccc1Oc1cncnc1N1CC2(CCN(C[C@@H]3CC[C@@H](NS(=O)(=O)N(C)C4CC4)CO3)CC2)C1 [Example 129, N-{[(3R,6S)-6-{[2-(5-{2-[(3R,5R)-3,5-Dimethylmorpholine-4-carbonyl]-4-fluorophenoxy}pyrimidin-4-yl)-2,7-diazaspiro[3.5]nonan-7-yl]methyl}oxan-3-yl]sulfamoyl}-N-methylcyclopropanamine]	< 0.1 µM
